Test results from patent publication US10858384B2, “Synthetic molecule constructs” (KODE BIOTECH LIMITED, priority 2004, dated 2020).

Key:
[1] = test system: RBCs; test: Evaluation of insertion of different lipid tails by agglutination with the relevant antisera; assay type: cell-based; set-up: scale not given here
Text: Transformation of RBCs with synthetic glycolipids with different lipid tails was first evaluated (Tables 22 and 24).

[2] = test system: RBCs; test: Insertion efficiency: post-transformation supernatant solutions, tube serology; assay type: cell-based
Experimental: The post-transformation supernatant solutions (from Atri-sp-Ad-DOPE (I) at 0.08 mg/mL, 0.05 mg/mL and 0.03 mg/mL, and Btri-sp-Ad-DOPE (VI) at 0.6 mg/mL, 20 μL) were added neat and in a 1:2 dilution to washed, packed RBCs (60 μL). The tubes were incubated in a 37° C. waterbath for one hour, with mixing taking place every 15 minutes.
The transformed RBCs were washed 3× with PBS and then suspended in Cellstab™ at the appropriate concentration for serology testing.

[3] = test system: group O red blood cells (RBCs); test: Tube serology of group O RBCs transformed at 37° C. with synthetic glycolipids; assay type: cell-based, human; set-up: Albaclone anti-A, Tube / Bioclone anti-A, Tube: scale not given here
Experimental: (§1) Washed packed group O red blood cells (RBCs) (3 parts by volume) and the synthetic glycolipid solution (1 part by volume, varying concentrations) were added to an eppendorf tube. The tube was incubated in a 37° C. waterbath for one hour, mixing every 15 minutes. […]
(§2) Tube serology and Diamed gel-card results for RBCs transformed with the different synthetic molecule constructs are provided in Table 38. Results for the stability of the RBCs transformed with the different synthetic glycolipids at different concentrations are provided in Tables 39 to 44.

[4] = test system: group O red blood cells (RBCs); test: Diamed gel-card agglutination of group O RBCs transformed at 37° C. with synthetic glycolipids; assay type: cell-based, human; set-up: scale not given here; conditions: for Agglutination, Diamed gel-cards, Albaclone anti-A / Agglutination, Diamed gel-cards, Bioclone anti-A: 0.025 mg/mL
Experimental: as §1, §2

CCCCCCCC/C=C\CCCCCCCC(=O)OC[C@H](COP(=O)(O)OCCNC(=O)CCCCC(=O)NCCCO[C@@H]1O[C@H](CO)[C@H](O)[C@H](O[C@H]2O[C@H](CO)[C@H](O)[C@H](O)[C@H]2NC(C)=O)[C@H]1O[C@@H]1O[C@@H](C)[C@@H](O)[C@@H](O)[C@@H]1O)OC(=O)CCCCCCC/C=C\CCCCCCCC [Atri-sp-Ad-DOPE (I)]
Agglutination score ([1]; 10 μg/mL, Alba anti-A, first series): 0 | Agglutination score ([1]; 10 μg/mL, Bio anti-A, first series): 0 | Agglutination score ([1]; 20 μg/mL, Alba anti-A, first series): 0 | Agglutination score ([1]; 20 μg/mL, Bio anti-A, first series): 0 | Agglutination score ([1]; 30 μg/mL, Alba anti-A, first series): 0 | Agglutination score ([1]; 30 μg/mL, Bio anti-A, first series): w+ | Agglutination score ([1]; 40 μg/mL, Alba anti-A, first series): w+ | Agglutination score ([1]; 50 μg/mL, Alba anti-A, first series): w+ | Agglutination score ([1]; 1000 μg/mL, DBA): 0 | Score (tube serology) ([2]; 1:2, pre-trans conc 0.03 mg/mL): 0 | Score (tube serology) ([2]; 1:2, pre-trans conc 0.05 mg/mL): 0 | Score (tube serology) ([2]; 1:2, pre-trans conc 0.08 mg/mL): 0 | Score (tube serology) ([2]; neat, pre-trans conc 0.03 mg/mL): 0 | Score (tube serology) ([2]; neat, pre-trans conc 0.05 mg/mL): 0 | Score (tube serology) ([2]; neat, pre-trans conc 0.08 mg/mL, 37° C. 1 h): 0 | Albaclone anti-A, Tube ([3]; 0.01 mg/mL): 0 | Bioclone anti-A, Tube ([3]; 0.01 mg/mL): 0 | Albaclone anti-A, Tube ([3]; 0.02 mg/mL): 0 | Bioclone anti-A, Tube ([3]; 0.02 mg/mL): 0 | Agglutination, manual tube serology, Albaclone anti-A ([3]; 0.025 mg/mL, Day 8, Alsevers): w+ | Agglutination, manual tube serology, Albaclone anti-A ([3]; 0.025 mg/mL, Day 8, Cellstab): vw | Agglutination, manual tube serology, Albaclone anti-A ([3]; 0.025 mg/mL, Day 15, Alsevers): 0 | Agglutination, manual tube serology, Bioclone anti-A ([3]; 0.025 mg/mL, Day 15, Alsevers): Vw | Agglutination, manual tube serology, Albaclone anti-A ([3]; 0.025 mg/mL, Day 15, Cellstab): 0 | Agglutination, manual tube serology, Albaclone anti-A ([3]; 0.025 mg/mL, Day 22, Alsevers): 0 | Agglutination, manual tube serology, Bioclone anti-A ([3]; 0.025 mg/mL, Day 22, Alsevers): w+ | Agglutination, manual tube serology, Albaclone anti-A ([3]; 0.025 mg/mL, Day 44, Cellstab): w+ | Agglutination, manual tube serology, Bioclone anti-A ([3]; 0.025 mg/mL, Day 44, Cellstab): w+ | Albaclone anti-A, Tube ([3]; 0.03 mg/mL): 0 | Bioclone anti-A, Tube ([3]; 0.03 mg/mL): w+ | Albaclone anti-A, Tube ([3]; 0.04 mg/mL): w+ | Albaclone anti-A, Tube ([3]; 0.05 mg/mL): w+ | Agglutination, manual tube serology, Albaclone anti-A ([3]; 0.05 mg/mL, Day 15, Cellstab): w+ | Albaclone anti-A, Diamed ([4]; 0.01 mg/mL): 0 | Bioclone anti-A, Diamed ([4]; 0.01 mg/mL): 0 | Agglutination, Diamed gel-cards, Albaclone anti-A ([4]; Day 2, Alsevers): 0 | Agglutination, Diamed gel-cards, Albaclone anti-A ([4]; Day 2, Cellstab): 0 | Agglutination, Diamed gel-cards, Albaclone anti-A ([4]; Day 8, Alsevers): 0 | Agglutination, Diamed gel-cards, Albaclone anti-A ([4]; Day 8, Cellstab): 0 | Agglutination, Diamed gel-cards, Albaclone anti-A ([4]; Day 15, Alsevers): 0 | Agglutination, Diamed gel-cards, Albaclone anti-A ([4]; Day 15, Cellstab): 0 | Agglutination, Diamed gel-cards, Albaclone anti-A ([4]; Day 22, Alsevers): 0 | Agglutination, Diamed gel-cards, Bioclone anti-A ([4]; Day 22, Alsevers): w+ | Agglutination, Diamed gel-cards, Albaclone anti-A ([4]; Day 22, Cellstab): 0 | Agglutination, Diamed gel-cards, Albaclone anti-A ([4]; Day 29, Alsevers): 0 | Agglutination, Diamed gel-cards, Bioclone anti-A ([4]; Day 29, Alsevers): w+ | Agglutination, Diamed gel-cards, Albaclone anti-A ([4]; Day 29, Cellstab): 0 | Agglutination, Diamed gel-cards, Albaclone anti-A ([4]; Day 43, Alsevers): w+ | Agglutination, Diamed gel-cards, Albaclone anti-A ([4]; Day 43, Cellstab): 0 | Agglutination, Diamed gel-cards, Albaclone anti-A ([4]; Day 50, Alsevers): w+ | Agglutination, Diamed gel-cards, Albaclone anti-A ([4]; Day 50, Cellstab): 0 | Agglutination, Diamed gel-cards, Albaclone anti-A ([4]; Day 57, Cellstab): 0 | Agglutination, Diamed gel-cards, Bioclone anti-A ([4]; Day 57, Cellstab): w+ | Agglutination, Diamed gel-cards, Albaclone anti-A ([4]; Day 63, Cellstab): 0 | Agglutination, Diamed gel-cards, Bioclone anti-A ([4]; Day 63, Cellstab): 0 | Agglutination, Diamed gel-cards, Albaclone anti-A ([4]; Day 71, Cellstab): 0 | Agglutination, Diamed gel-cards, Bioclone anti-A ([4]; Day 71, Cellstab): 0 | Agglutination, Diamed gel-cards, Albaclone anti-A ([4]; Day 86, Cellstab): 0 | Agglutination, Diamed gel-cards, Bioclone anti-A ([4]; Day 86, Cellstab): 0
